Source: patent US8304371B2, “Insecticidal arylpyrrolines” (Bayer Cropscience AG, priority 2008, dated 2012)

Tests used:
Assay type in all cases: in vivo
[1] = tested on: Tobacco Cutworm (Spodoptera litura) Larvae; assay: Test against tobacco cutworm (Spodoptera litura) larvae, leaf dip; settings: active compound concentration 100 ppm; third-instar larvae; after 7 days
Description: (§1) Unless nomentioned otherwise, the test solutions were prepared as follows:
(§2) Containing as solvent: Dimethylformamide, 3 parts by weight; and as emulsifier: Polyoxyethylene alkyl phenyl ether, 1 part by weight
(§3) To prepare the test solution, 1 part by weight of an active compound is mixed with the above-mentioned amount of solvent containing the above-mentioned amount of emulsifier, and the mixture is diluted with water to the desired concentration.
The leaves of sweet potato were immersed in the test solution at the appropriate concentration, and the leaves were dried in air. The leaves were then placed in a petri dish having a diameter of 9 cm, and ten third-instar larvae of tobacco cutworm were released therein. The petri dish was placed in a temperature chamber at 25° C. After 2 days and 4 days sweet potato leaves were additionally added. After 7 days, the number of dead larvae was counted, to calculate the insecticidal activity. An insecticidal activity of 100% means that all larvae were killed, whereas an insecticidal activity of 0% means that no larva was killed. In the current test, the results of two petri dishes for each partition were averaged.

[2] = tested on: Two-Spotted Spider Mite (Tetranvchus urticae); assay: Test against two-spotted spider mite, spray on kidney bean; settings: active compound concentration 100 ppm; adult mites; after 7 days
Description: as §1, §2, §3
50 to 100 adult two-spotted spider mites were inoculated onto the leaves of kidney beans at the two-true leaf stage, which plant had been cultivated in a pot having a diameter of 6 cm. After one day, test solution at the appropriate concentration was sprayed thereon in a sufficient amount using a spray gun. After the spraying, the plant pot was placed inside a greenhouse, and after 7 days, the acaricidal activity was calculated. An acaricidal activity of 100% means that all mites were killed, whereas an acaricidal activity of 0% means that no mite was killed.

[3] = tested on: Cucurbit Leaf Beetle (Aulacophora femoralis); assay: Test against cucurbit leaf beetle, cucumber leaf dip; settings: active compound concentration 100 ppm; second-instar larvae; after 7 days
Description: as §1, §2, §3
Cucumber leaves were immersed in the test solution at the appropriate concentration, and the leaves were dried in air. The leaves were then placed in a plastic cup containing aseptically sterilized black soil, and five second-instar larvae of cucurbit leaf beetle were released therein. After 7 days, the number of dead larvae was counted, and thus the insecticidal activity was calculated. An insecticidal activity of 100% means that all beetles were killed, whereas an insecticidal activity of 0% means that no beetle was killed.

[4] = tested on: Strain of Green Peach Aphid (Mvzus persicas) which is Resistant to Organic Phosphorus and Carbamate Agents; assay: Test against resistant green peach aphid, spray on egg plant; settings: active compound concentration 500 ppm; after 7 days
Description: as §1, §2, §3
About 30 to 50 of the resistant green peach aphids were inoculated per seedling, onto the leaves of egg plant at the two-true leaf stage, which plant had been cultivated in a pot having a diameter of 6 cm. One day after the inoculation, the test solution at the appropriate concentration was sprayed thereon in a sufficient amount using a spray gun. After the spraying, the plant pot was placed in a greenhouse at 28° C., and after 7 days, the insecticidal activity was calculated. An insecticidal activity of 100% means that all aphids were killed, whereas an insecticidal activity of […] means that no aphid was killed. The test was repeated two times.

CSCC(=O)NCc1ccc(C2=NCC(c3cc(Cl)c(Cl)c(Cl)c3)(C(F)(F)F)C2)cc1C(F)(F)F (racemic) [2-209]
100%: insecticidal activity [1] | acaricidal activity [2] | insecticidal activity [3] | insecticidal activity [4]

O=C(CC(F)(F)F)NCc1ccc(C2=NCC(c3cc(Cl)cc(Cl)c3)(C(F)(F)F)C2)cc1C(F)(F)F (racemic) [2-211]
100%: acaricidal activity [2] | insecticidal activity [3] | insecticidal activity [4]

O=C(NCc1ccc(C2=NCC(c3cc(Cl)cc(Cl)c3)(C(F)(F)F)C2)cc1C(F)(F)F)C1CC1 (racemic) [2-212]
100%: acaricidal activity [2] | insecticidal activity [3] | insecticidal activity [4]

N#Cc1cc(C2=NCC(c3cc(C(F)(F)F)cc(C(F)(F)F)c3)(C(F)(F)F)C2)ccc1-n1cncn1 (stereo not drawn) [1-72]
100%: insecticidal activity [1] | acaricidal activity [2] | insecticidal activity [3] | insecticidal activity [4]

N#Cc1cc(C2=NCC(c3cc(Br)cc(Br)c3)(C(F)(F)F)C2)ccc1-n1cncn1 (stereo not drawn) [1-94]
100%: insecticidal activity [1] | acaricidal activity [2] | insecticidal activity [3] | insecticidal activity [4]

N#Cc1cc(C2=NCC(c3cc(Cl)cc(C(F)(F)F)c3)(C(F)(F)F)C2)ccc1-n1cncn1 (stereo not drawn) [1-95]
100%: insecticidal activity [1] | acaricidal activity [2] | insecticidal activity [3] | insecticidal activity [4]

CCC(=O)NCc1ccc(C2=NCC(c3cc(Cl)cc(Cl)c3)(C(F)(F)F)C2)cc1Br (stereo not drawn) [2-19]
100%: insecticidal activity [1] | insecticidal activity [3]

O=C(NCc1ccc(C2=NCC(c3cc(Cl)cc(Cl)c3)(C(F)(F)F)C2)cc1Br)C1CC1 (stereo not drawn) [2-153]
100%: insecticidal activity [1] | insecticidal activity [3]

O=C(CC(F)(F)F)NCc1ccc(C2=NCC(c3cc(Cl)cc(Cl)c3)(C(F)(F)F)C2)cc1Br (stereo not drawn) [2-154]
100%: insecticidal activity [1] | acaricidal activity [2] | insecticidal activity [3]

CC(=O)NCc1ccc(C2=NCC(c3cc(Cl)c(Cl)c(Cl)c3)(C(F)(F)F)C2)cc1Cl (stereo not drawn) [2-156]
100%: insecticidal activity [1] | acaricidal activity [2] | insecticidal activity [3] | insecticidal activity [4]

CCC(=O)NCc1ccc(C2=NCC(c3cc(Cl)c(Cl)c(Cl)c3)(C(F)(F)F)C2)cc1Cl (stereo not drawn) [2-157]
100%: insecticidal activity [1] | acaricidal activity [2] | insecticidal activity [3] | insecticidal activity [4]

O=C(NCc1ccc(C2=NCC(c3cc(Cl)c(Cl)c(Cl)c3)(C(F)(F)F)C2)cc1Cl)C1CC1 (stereo not drawn) [2-158]
100%: insecticidal activity [1] | acaricidal activity [2] | insecticidal activity [3] | insecticidal activity [4]

O=C(CC(F)(F)F)NCc1ccc(C2=NCC(c3cc(Cl)c(Cl)c(Cl)c3)(C(F)(F)F)C2)cc1Cl (stereo not drawn) [2-159]
100%: insecticidal activity [1] | acaricidal activity [2] | insecticidal activity [3] | insecticidal activity [4]

CC(=O)NCc1ccc(C2=NCC(c3cc(Cl)cc(Cl)c3)(C(F)(F)F)C2)cc1C(F)(F)F (stereo not drawn) [2-160]
100%: insecticidal activity [1] | acaricidal activity [2] | insecticidal activity [3] | insecticidal activity [4]

CC(=O)NCc1ccc(C2=NCC(c3cc(Cl)c(Cl)c(Cl)c3)(C(F)(F)F)C2)cc1C(F)(F)F (stereo not drawn) [2-161]
100%: insecticidal activity [1] | acaricidal activity [2] | insecticidal activity [3] | insecticidal activity [4]

CCC(=O)NCc1ccc(C2=NCC(c3cc(Cl)c(Cl)c(Cl)c3)(C(F)(F)F)C2)cc1C(F)(F)F (stereo not drawn) [2-162]
100%: insecticidal activity [1] | acaricidal activity [2] | insecticidal activity [3] | insecticidal activity [4]

O=C(NCc1ccc(C2=NCC(c3cc(Cl)c(Cl)c(Cl)c3)(C(F)(F)F)C2)cc1C(F)(F)F)C1CC1 (stereo not drawn) [2-163]
100%: insecticidal activity [1] | acaricidal activity [2] | insecticidal activity [3] | insecticidal activity [4]

O=C(CC(F)(F)F)NCc1ccc(C2=NCC(c3cc(Cl)c(Cl)c(Cl)c3)(C(F)(F)F)C2)cc1C(F)(F)F (stereo not drawn) [2-164]
100%: insecticidal activity [1] | acaricidal activity [2] | insecticidal activity [3] | insecticidal activity [4]

CC(=O)NCc1ccc(C2=NCC(c3cc(C(F)(F)F)cc(C(F)(F)F)c3)(C(F)(F)F)C2)cc1C(F)(F)F (stereo not drawn) [2-165]
100%: insecticidal activity [1] | acaricidal activity [2] | insecticidal activity [3] | insecticidal activity [4]

CCC(=O)NCc1ccc(C2=NCC(c3cc(C(F)(F)F)cc(C(F)(F)F)c3)(C(F)(F)F)C2)cc1C(F)(F)F (stereo not drawn) [2-166]
100%: insecticidal activity [1] | acaricidal activity [2] | insecticidal activity [3] | insecticidal activity [4]

O=C(NCc1ccc(C2=NCC(c3cc(C(F)(F)F)cc(C(F)(F)F)c3)(C(F)(F)F)C2)cc1C(F)(F)F)C1CC1 (stereo not drawn) [2-167]
100%: insecticidal activity [1] | acaricidal activity [2] | insecticidal activity [3] | insecticidal activity [4]

O=C(CC(F)(F)F)NCc1ccc(C2=NCC(c3cc(C(F)(F)F)cc(C(F)(F)F)c3)(C(F)(F)F)C2)cc1C(F)(F)F (stereo not drawn) [2-168]
100%: insecticidal activity [1] | acaricidal activity [2] | insecticidal activity [3] | insecticidal activity [4]

O=C(NCc1ccc(C2=NCC(c3cc(Cl)c(Cl)c(Cl)c3)(C(F)(F)F)C2)cc1Br)C1CC1 (stereo not drawn) [2-170]
100%: insecticidal activity [1] | acaricidal activity [2] | insecticidal activity [3] | insecticidal activity [4]

O=C(CC(F)(F)F)NCc1ccc(C2=NCC(c3cc(Cl)c(Cl)c(Cl)c3)(C(F)(F)F)C2)cc1Br (stereo not drawn) [2-171]
100%: insecticidal activity [1] | acaricidal activity [2] | insecticidal activity [3] | insecticidal activity [4]

O=C(NCc1ccc(C2=NCC(c3cc(Cl)c(Cl)c(C(F)(F)F)c3)(C(F)(F)F)C2)cc1Br)C1CC1 (stereo not drawn) [2-172]
100%: insecticidal activity [1] | acaricidal activity [2] | insecticidal activity [3] | insecticidal activity [4]

O=C(CC(F)(F)F)NCc1ccc(C2=NCC(c3cc(Cl)c(Cl)c(C(F)(F)F)c3)(C(F)(F)F)C2)cc1Br (stereo not drawn) [2-173]
100%: insecticidal activity [1] | acaricidal activity [2] | insecticidal activity [3] | insecticidal activity [4]

O=C(NCc1ccc(C2=NCC(c3cc(C(F)(F)F)cc(C(F)(F)F)c3)(C(F)(F)F)C2)cc1Br)C1CC1 (stereo not drawn) [2-179]
100%: insecticidal activity [1] | acaricidal activity [2] | insecticidal activity [3] | insecticidal activity [4]

O=C(CC(F)(F)F)NCc1ccc(C2=NCC(c3cc(C(F)(F)F)cc(C(F)(F)F)c3)(C(F)(F)F)C2)cc1Br (stereo not drawn) [2-180]
100%: insecticidal activity [1] | acaricidal activity [2] | insecticidal activity [3] | insecticidal activity [4]
